In patent US9688683B2, “Substituted condensed pyrimidine compounds” (GRÜNENTHAL GMBH, priority 2013, dated 2017) one finds IC50 data, which are given here for 30 compounds.

The assay has as its target human PDE4B1 (Homo sapiens (Human), UniProt Q07343). Nature of the assay: cAMP HTRF assay to determine the activity of hPDE4B1. In kind it is biochemical. To be noted: human recombinant PDE4B1 expressed in Sf9 cells; cAMP 40 nM; N=1-2, n=2; read-out: PDE4B IC50-value. Here is the method:
A: Determination of the PDE4B IC50 Values with a cAMP HRTF® Assay to Determine the Activity of hPDE4B1
The inhibiting effect of the compounds on the enzyme activity of human PDE4B1 is measured by the quantification of 5′-AMP, which is formed from 3′,5′-adenosine monophosphate (cAMP). Human recombinant enzyme, expressed in Sf9 cells, and the HTRF (homogeneous time-resolved fluorescence) detection method are used in the assay.
The test compound or water (control) is mixed with the human recombinant PDE4B1 enzyme (4.8 U) in a buffer consisting of 44.4 mM tris-HCl, 5.28 mM MgCl2, 2.64 mM DTT and 0.044% Tween 20 (pH 7.8). After adding the cAMP enzyme substrate (final concentration 40 nM) the mixture is incubated for 30 minutes at room temperature. Then a fluorescence acceptor (Dye2 marked with cAMP), a fluorescence donor (anti-cAMP antibody marked with a europium cryptate) and the non-specific phosphodiesterase inhibitor IBMX (3-isobutyl-1-methylxanthine; final concentration 1 mM) are added. After 60 minutes the fluorescence transfer, which correlates with the amount of remaining cAMP, is measured with a microplate reader (Rubystar, BMG) at λex=337 nm, λem=620 nm and λem=665 nm. The enzyme activity is calculated from the quotient formed from the measured signal at 665 nm and that at 620 nm. The result is expressed as the percentage inhibition of enzyme activity of the control (without PDE4 inhibitor) (literature: N. Saldou et al., Comparison of recombinant human PDE4 isoforms: interaction with substrate and inhibitors, Cell. Signal. Vol. 10, No. 6, 427-440, 1998). The enzyme is omitted for measurement of the basal control.
(Time-resolved FRET reads energy transfer from a long-lived donor to a nearby acceptor.)

A value given as a limit tells only on which side of the number the result lay.

Sequence of human PDE4B1 (Q07343 whole entry): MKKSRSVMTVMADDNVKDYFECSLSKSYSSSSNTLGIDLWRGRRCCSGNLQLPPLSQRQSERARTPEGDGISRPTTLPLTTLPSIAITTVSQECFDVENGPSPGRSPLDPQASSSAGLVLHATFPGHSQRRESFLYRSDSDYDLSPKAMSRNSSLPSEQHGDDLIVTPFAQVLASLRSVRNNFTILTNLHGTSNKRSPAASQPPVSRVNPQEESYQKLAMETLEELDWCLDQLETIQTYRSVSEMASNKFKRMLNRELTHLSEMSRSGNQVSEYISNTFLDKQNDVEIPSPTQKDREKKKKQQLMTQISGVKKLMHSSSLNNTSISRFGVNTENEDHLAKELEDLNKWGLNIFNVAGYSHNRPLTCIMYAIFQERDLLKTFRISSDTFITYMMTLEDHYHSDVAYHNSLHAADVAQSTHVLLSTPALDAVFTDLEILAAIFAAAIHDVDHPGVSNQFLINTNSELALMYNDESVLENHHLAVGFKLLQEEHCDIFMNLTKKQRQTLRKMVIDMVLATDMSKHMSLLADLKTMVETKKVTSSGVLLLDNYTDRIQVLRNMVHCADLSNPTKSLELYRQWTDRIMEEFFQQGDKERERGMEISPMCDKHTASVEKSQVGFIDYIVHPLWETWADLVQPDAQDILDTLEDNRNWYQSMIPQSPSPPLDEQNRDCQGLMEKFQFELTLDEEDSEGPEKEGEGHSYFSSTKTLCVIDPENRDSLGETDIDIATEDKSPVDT

Regarding `COc1ccc(-c2nc(C)c3ccn(-c4ccc(C(=O)O)cc4)c3n2)cc1F` [Compound 1, 4-(2-(3-Fluoro-4-methoxyphenyl)-4-methyl-7H-pyrrolo[2,3-d]pyrimidin-7-yl)benzoic acid], the half-inhibitory concentration (IC50) is < 1000 nM. With `CCc1nc(-c2ccc(OC)c(F)c2)nc2c1ccn2-c1ccc(C(=O)O)cc1` [Compound 2, 4-(4-ethyl-2-(3-fluoro-4-methoxyphenyl)-7H-pyrrolo[2,3-d]pyrimidin-7-yl)benzoic acid] the figure was < 1000 nM; with `CCc1nc(-c2ccc(OC)c(F)c2)nc2c1ccn2-c1ccc(CC(=O)O)cc1` [Compound 4, 2,2,2-Trifluoroacetic acid compound with 2-(4-(4-ethyl-2-(3-fluoro-4-methoxyphenyl)-7H-pyrrolo[2,3-d]pyrimidin-7-yl)phenyl)acetic acid (1:1)], < 1000 nM; with `CCc1nc(-c2ccc(OC)c(F)c2)nc2c1CCN2c1ccc(C(=O)O)cc1` [Compound 6, 4-(4-ethyl-2-(3-fluoro-4-methoxyphenyl)-5H-pyrrolo[2,3-d]pyrimidin-7(6H)-yl)benzoic acid], 1000 to 10000 nM.

In the case of `COc1ccc(-c2nc(C)c3c(n2)N(c2ccc(CC(=O)O)cc2)CC3)cc1F` [Compound 7, 2-(4-(2-(3-Fluoro-4-methoxyphenyl)-4-methyl-5H-pyrrolo[2,3-d]pyrimidin-7(6H)-yl)phenyl)acetic acid], the IC50 was < 1000 nM.

Consider `CCc1nc(-c2ccc(OC)c(F)c2)nc2c1CCN2c1ccc(CC(=O)O)cc1` [Compound 8, 2-(4-(4-Ethyl-2-(3-fluoro-4-methoxyphenyl)-5H-pyrrolo[2,3-d]pyrimidin-7(6H)-yl)phenyl)-acetic acid], for which the IC50 is < 1000 nM.

Turning to `CCc1nc(-c2ccc(OC)c(F)c2)nc2c1CCN2c1cccc(OCC(=O)N(C)C)c1` [Compound 9, 2-(3-(4-Ethyl-2-(3-fluoro-4-methoxyphenyl)-5H-pyrrolo[2,3-d]pyrimidin-7(6H)-yl)phenoxy)-N,N-dimethylacetamide], the IC50 was < 1000 nM. The value for `COc1ccc(-c2nc(C)c3c(n2)N(c2ccc(CC(=O)O)cc2)CC3C)cc1F` (stereo not drawn) [Compound 12, 2,2,2-Trifluoroacetic acid compound with 2-(4-(2-(3-fluoro-4-methoxyphenyl)-4,5-dimethyl-5H-pyrrolo[2,3-d]pyrimidin-7(6H)-yl)phenyl)acetic acid (1:1)] was < 1000 nM; that for `COc1ccc(-c2nc(C)c3ccn(-c4ccc(C(=O)O)cc4)c3n2)cc1Cl` [Compound 14, 4-(2-(3-Chloro-4-methoxyphenyl)-4-methyl-7H-pyrrolo[2,3-d]pyrimidin-7-yl)benzoic acid] was < 1000 nM. The value for `COc1ccc(-c2nc(C)c3ccn(-c4ccc(CC(=O)O)cc4)c3n2)cc1Cl` [Compound 16, 2-(4-(2-(3-Chloro-4-methoxyphenyl)-4-methyl-7H-pyrrolo[2,3-d]pyrimidin-7-yl)phenyl)acetic acid] was < 1000 nM; that for `COc1ccc(-c2nc(C)c3c(n2)N(c2ccc(CC(=O)O)cc2)CC3)cc1Cl` [Compound 20, 2-(4-(2-(3-Chloro-4-methoxyphenyl)-4-methyl-5H-pyrrolo[2,3-d]pyrimidin-7(6H)-yl)phenyl)acetic acid] was < 1000 nM. With `CCc1nc(-c2ccc(OC)c(Cl)c2)nc2c1CCN2c1ccc(CC(=O)O)cc1` [Compound 21, 2-(4-(2-(3-Chloro-4-methoxyphenyl)-4-ethyl-5H-pyrrolo[2,3-d]pyrimidin-7(6H)-yl)phenyl)acetic acid] the figure was < 1000 nM.

In the case of `COc1ccc(-c2nc(C)c3c(n2)N(c2ccc(CC(=O)O)cc2)CC3C)cc1Cl` (stereo not drawn) [Compound 24, 2,2,2-Trifluoroacetic acid compound with 2-(4-(2-(3-chloro-4-methoxyphenyl)-4,5-dimethyl-5H-pyrrolo[2,3-d]pyrimidin-7(6H)-yl)phenyl)acetic acid (1:1)], the IC50 was < 1000 nM. As for `Cc1nc(-c2ccc(F)c(F)c2)nc2c1ccn2-c1ccc(C(=O)O)cc1` [Compound 26, 4-(2-(3,4-Difluorophenyl)-4-methyl-7H-pyrrolo[2,3-d]pyrimidin-7-yl)benzoic acid], the IC50 was < 1000 nM. Take `Cc1nc(-c2ccc(Cl)s2)nc2c1ccn2-c1ccc(C(=O)O)cc1` [Compound 38, 4-(2-(5-Chlorothiophen-2-yl)-4-methyl-7H-pyrrolo[2,3-d]pyrimidin-7-yl)benzoic acid]: the IC50 is < 1000 nM. In the case of `Cc1nc(-c2ccc(Cl)s2)nc2c1CCN2c1ccc(CC(=O)O)cc1` [Compound 39, 2,2,2-Trifluoroacetic acid compound with 2-(4-(2-(5-chlorothiophen-2-yl)-4-methyl-5H-pyrrolo[2,3-d]pyrimidin-7(6H)-yl)phenyl)acetic acid (1:1)], the IC50 is < 1000 nM. The value for `CCc1nc(-c2ccc(Cl)s2)nc2c1CCN2c1cccc(OCC(=O)N(C)C)c1` [Compound 40, 2-(3-(2-(5-chlorothiophen-2-yl)-4-ethyl-5H-pyrrolo[2,3-d]pyrimidin-7(6H)-yl)phenoxy)-N,N-dimethylacetamide] was < 1000 nM; that for `COc1ccc(-c2nc(OC)c3ccn(-c4ccc(C(=O)O)cc4)c3n2)cc1Cl` [Compound 45, 4-(2-(3-chloro-4-methoxyphenyl)-4-methoxy-7H-pyrrolo[2,3-d]pyrimidin-7-yl)benzoic acid] was 1000 to 10000 nM; that for `CCc1nc(-c2ccc(Cl)s2)nc2c1CCN2c1ccc(C(=O)O)cc1` [Compound 46, 4-(2-(5-chlorothiophen-2-yl)-4-ethyl-5H-pyrrolo[2,3-d]pyrimidin-7(6H)-yl)benzoic acid] was < 1000 nM.

`CCc1nc(-c2ccc(OC)c(F)c2)nc2c1CCN2c1cccc(OCC(=O)NC2COC2)c1` [Compound 47, 2-(3-(4-ethyl-2-(3-fluoro-4-methoxyphenyl)-5H-pyrrolo[2,3-d]pyrimidin-7(6H)-yl)phenoxy)-N-(oxetan-3-yl)acetamide]: the IC50 lay within 1000 to 10000 nM. With `COc1ccc(-c2nc(S(C)(=O)=O)c3ccn(-c4cccc(OCC(=O)N(C)C)c4)c3n2)cc1F` [Compound 50, 2-(3-(2-(3-fluoro-4-methoxyphenyl)-4-(methylsulfonyl)-7H-pyrrolo[2,3-d]pyrimidin-7-yl)phenoxy)-N,N-dimethylacetamide] the figure was 1000 to 10000 nM; with `CCc1nc(-c2ccc(OC)c(F)c2)nc2c1CCN2c1cccc(OCC(=O)N(C)CC2CC2)c1` [Compound 51, N-(cyclopropylmethyl)-2-(3-(4-ethyl-2-(3-fluoro-4-methoxyphenyl)-5H-pyrrolo[2,3-d]pyrimidin-7(6H)-yl)phenoxy)-N-methylacetamide], 1000 to 10000 nM. With `COc1ccc(-c2nc(SC)c3ccn(-c4ccc(CC(=O)O)cc4)c3n2)cc1F` [Compound 69, 2-(4-(2-(3-fluoro-4-methoxyphenyl)-4-(methylthio)-7H-pyrrolo[2,3-d]pyrimidin-7-yl)phenyl)acetic acid] the figure was 1000 to 10000 nM; with `COc1ccc(-c2nc(C3CC3)c3ccn(-c4cccc(OCC(=O)N(C)C)c4)c3n2)cc1F` [Compound 76, 2-(3-(4-cyclopropyl-2-(3-fluoro-4-methoxyphenyl)-7H-pyrrolo[2,3-d]pyrimidin-7-yl)phenoxy)-N,N-dimethylacetamide], 1000 to 10000 nM; with `CCc1nc(-c2ccc(OC)nc2)nc2c1ccn2-c1cccc(OCC(=O)N(C)C)c1` [Compound 77, 2-(3-(4-ethyl-2-(6-methoxypyridin-3-yl)-7H-pyrrolo[2,3-d]pyrimidin-7-yl)phenoxy)-N,N-dimethylacetamide], 1000 to 10000 nM. The value for `COc1ccc(-c2ncc3c(n2)N(c2cccc(OCC(=O)N(C)C)c2)CC32CC2)cc1F` [Compound 78, 2-(3-(2′-(3-fluoro-4-methoxyphenyl)spiro[cyclopropane-1,5′-pyrrolo[2,3-d]pyrimidin]-7′(6′H)-yl)phenoxy)-N,N-dimethylacetamide] was 1000 to 10000 nM; that for `COc1ccc(-c2nc(C)c3c(n2)N(c2cccc(OCC(=O)N(C)C)c2)CC32CC2)cc1F` [Compound 79, 2-(3-(2′-(3-fluoro-4-methoxyphenyl)-4′-methylspiro-[cyclopropane-1,5′-pyrrolo[2,3-d]pyrimidin]-7′(6′H)-yl)phenoxy)-N,N-dimethylacetamide] was 1000 to 10000 nM.

Turning to `CCc1nc(-c2cccnc2OC)nc2c1ccn2-c1cccc(OCC(=O)N(C)C)c1` [Compound 80, 2-(3-(4-ethyl-2-(2-methoxypyridin-3-yl)-7H-pyrrolo[2,3-d]pyrimidin-7-yl)phenoxy)-N,N-dimethylacetamide], the IC50 was < 1000 nM.

Turning to `CCc1nc(-c2cccc(S(C)(=O)=O)c2)nc2c1ccn2-c1cccc(OCC(=O)N(C)C)c1` [Compound 81, 2-(3-(4-ethyl-2-(3-(methylsulfonyl)phenyl)-7H-pyrrolo[2,3-d]pyrimidin-7-yl)phenoxy)-N,N-dimethylacetamide], the IC50 is < 1000 nM. With `CCc1nc(-c2ccncc2)nc2c1ccn2-c1cccc(OCC(=O)N(C)C)c1` [Compound 82, 2-(3-(4-ethyl-2-(pyridin-4-yl)-7H-pyrrolo[2,3-d]pyrimidin-7-yl)phenoxy)-N,N-dimethylacetamide] the figure was < 1000 nM.

Broadly, the IC50 is the midpoint of a concentration-inhibition curve.
